Reference: patent publication US20040053355A1, “Modular approach to on-line synthesis, drug discovery and biochemical transformations using immobilized enzyme reactors” (priority 2000, published 2004)

T1: immobilized DBH (dopamine β-hydroxylase) (Bos taurus, UniProt P15101)
T1 construct: purchased
T1 sequence (P15101 1-610): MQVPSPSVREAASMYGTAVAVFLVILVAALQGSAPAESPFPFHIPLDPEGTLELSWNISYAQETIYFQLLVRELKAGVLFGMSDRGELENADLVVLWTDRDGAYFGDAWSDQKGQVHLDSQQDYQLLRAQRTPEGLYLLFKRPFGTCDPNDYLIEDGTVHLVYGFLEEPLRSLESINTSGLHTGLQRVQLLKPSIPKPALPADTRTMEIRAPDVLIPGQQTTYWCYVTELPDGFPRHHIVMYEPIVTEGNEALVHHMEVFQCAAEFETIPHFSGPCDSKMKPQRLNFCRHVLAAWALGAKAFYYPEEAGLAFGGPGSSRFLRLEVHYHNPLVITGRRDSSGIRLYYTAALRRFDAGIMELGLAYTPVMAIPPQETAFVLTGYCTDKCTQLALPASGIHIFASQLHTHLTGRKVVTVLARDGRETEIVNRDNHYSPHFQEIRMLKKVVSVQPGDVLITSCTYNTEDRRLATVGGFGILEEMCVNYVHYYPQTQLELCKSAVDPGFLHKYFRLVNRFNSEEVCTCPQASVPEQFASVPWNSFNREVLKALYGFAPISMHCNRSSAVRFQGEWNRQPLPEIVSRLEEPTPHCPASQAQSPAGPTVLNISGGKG

T2: DBH-Glut-P IMER (immobilized dopamine beta-hydroxylase) (Bos taurus, UniProt P15101)
T2 construct: purchased
T2 sequence (P15101 1-610): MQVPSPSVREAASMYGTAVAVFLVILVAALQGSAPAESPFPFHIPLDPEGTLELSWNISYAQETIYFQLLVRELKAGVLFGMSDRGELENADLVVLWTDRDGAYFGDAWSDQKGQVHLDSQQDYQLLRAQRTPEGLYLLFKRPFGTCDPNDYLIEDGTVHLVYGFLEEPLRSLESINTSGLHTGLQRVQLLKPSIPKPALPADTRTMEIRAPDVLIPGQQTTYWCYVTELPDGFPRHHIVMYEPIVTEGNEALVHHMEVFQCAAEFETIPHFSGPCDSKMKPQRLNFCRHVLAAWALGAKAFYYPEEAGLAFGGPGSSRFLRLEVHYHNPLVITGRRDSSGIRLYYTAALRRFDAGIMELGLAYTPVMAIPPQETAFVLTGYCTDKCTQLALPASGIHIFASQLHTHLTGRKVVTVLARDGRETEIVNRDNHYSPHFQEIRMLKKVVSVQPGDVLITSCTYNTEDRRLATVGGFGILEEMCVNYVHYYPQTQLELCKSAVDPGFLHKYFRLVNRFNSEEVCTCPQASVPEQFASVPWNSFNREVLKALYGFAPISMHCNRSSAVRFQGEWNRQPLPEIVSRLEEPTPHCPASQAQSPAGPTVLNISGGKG

T3: dopamine beta-hydroxylase (DBH), non-immobilized (Bos taurus, UniProt P15101)
T3 construct: purchased
T3 sequence (P15101 1-610): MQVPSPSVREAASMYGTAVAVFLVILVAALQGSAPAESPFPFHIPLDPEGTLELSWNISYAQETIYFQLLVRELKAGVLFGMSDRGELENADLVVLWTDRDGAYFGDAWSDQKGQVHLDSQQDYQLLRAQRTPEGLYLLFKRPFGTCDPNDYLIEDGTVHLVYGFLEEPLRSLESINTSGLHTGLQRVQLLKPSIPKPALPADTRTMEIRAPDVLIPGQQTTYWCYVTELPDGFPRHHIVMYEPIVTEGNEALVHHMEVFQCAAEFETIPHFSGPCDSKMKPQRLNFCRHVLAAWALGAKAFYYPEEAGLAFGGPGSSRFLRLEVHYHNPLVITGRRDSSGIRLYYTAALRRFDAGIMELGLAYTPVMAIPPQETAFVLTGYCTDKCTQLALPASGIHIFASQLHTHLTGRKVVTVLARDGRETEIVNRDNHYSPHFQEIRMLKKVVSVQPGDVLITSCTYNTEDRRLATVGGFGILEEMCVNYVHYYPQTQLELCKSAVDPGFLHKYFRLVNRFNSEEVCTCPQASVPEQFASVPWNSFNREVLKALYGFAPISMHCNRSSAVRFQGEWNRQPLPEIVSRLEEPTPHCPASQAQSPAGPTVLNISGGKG

T4: dopamine beta-hydroxylase (Homo sapiens, UniProt P09172)
T4 sequence (P09172 1-617): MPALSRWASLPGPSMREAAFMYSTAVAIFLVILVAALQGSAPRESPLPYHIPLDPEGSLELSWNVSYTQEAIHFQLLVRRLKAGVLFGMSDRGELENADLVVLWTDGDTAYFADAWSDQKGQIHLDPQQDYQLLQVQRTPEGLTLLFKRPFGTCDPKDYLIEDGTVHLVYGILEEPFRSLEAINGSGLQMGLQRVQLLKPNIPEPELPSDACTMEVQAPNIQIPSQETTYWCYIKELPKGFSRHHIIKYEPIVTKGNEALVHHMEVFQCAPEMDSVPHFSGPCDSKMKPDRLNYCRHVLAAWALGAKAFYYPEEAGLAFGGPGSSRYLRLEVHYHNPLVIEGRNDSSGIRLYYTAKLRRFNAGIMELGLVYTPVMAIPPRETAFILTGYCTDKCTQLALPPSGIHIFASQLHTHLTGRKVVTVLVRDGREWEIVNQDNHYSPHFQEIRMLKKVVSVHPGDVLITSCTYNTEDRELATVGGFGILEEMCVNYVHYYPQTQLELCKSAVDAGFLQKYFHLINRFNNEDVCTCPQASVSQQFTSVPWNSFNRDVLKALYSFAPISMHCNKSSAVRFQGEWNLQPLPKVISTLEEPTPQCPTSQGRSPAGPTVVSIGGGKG

B1: dopamine beta-hydroxylase (DBH), non-immobilized (Bos taurus) (protein)
chain: MQVPSPSVREAASMYGTAVAVFLVILVAALQGSAPAESPFPFHIPLDPEGTLELSWNISYAQETIYFQLLVRELKAGVLFGMSDRGELENADLVVLWTDRDGAYFGDAWSDQKGQVHLDSQQDYQLLRAQRTPEGLYLLFKRPFGTCDPNDYLIEDGTVHLVYGFLEEPLRSLESINTSGLHTGLQRVQLLKPSIPKPALPADTRTMEIRAPDVLIPGQQTTYWCYVTELPDGFPRHHIVMYEPIVTEGNEALVHHMEVFQCAAEFETIPHFSGPCDSKMKPQRLNFCRHVLAAWALGAKAFYYPEEAGLAFGGPGSSRFLRLEVHYHNPLVITGRRDSSGIRLYYTAALRRFDAGIMELGLAYTPVMAIPPQETAFVLTGYCTDKCTQLALPASGIHIFASQLHTHLTGRKVVTVLARDGRETEIVNRDNHYSPHFQEIRMLKKVVSVQPGDVLITSCTYNTEDRRLATVGGFGILEEMCVNYVHYYPQTQLELCKSAVDPGFLHKYFRLVNRFNSEEVCTCPQASVPEQFASVPWNSFNREVLKALYGFAPISMHCNRSSAVRFQGEWNRQPLPEIVSRLEEPTPHCPASQAQSPAGPTVLNISGGKG
notes: purchased

What was measured:
[1] = target: T1, immobilized DBH (dopamine β-hydroxylase); assay: Captopril inhibition of immobilized DBH, batch assay (support not specified); format: biochemical, bovine
Experimental: (§1) The enzyme was assayed as follows: four different solutions were prepared A, B, C and D (final concentration). (A) 500 μL of enzyme solution (10 μg/ml); B: 275 μL sodium acetate buffer (10 mM, pH 5.5), 50 μL cupric sulphate (5 μM); C: 25 μL catalase (5 μg/ml), 50 μL ascorbic acid (10 mM), 50 μl sodium fumarate (10 mM); D: 50 μl substrate (5 mM). Solution B was added to solution A, the resulting solution was mixed for 1 min. Solution C was added and the resulting solution was mixed for an additional minute. The reaction was started with the addition of the substrate (D), after which the reaction solution was incubated for 5 min at 37° C. in a shaking bath. The reaction was stopped by the addition of 100 μl of cold hexane, the resulting mixture was centrifuged at 3000×g for 10 min and the supernatant transferred to the pre-conditioned phenylboronic acid cartridges in order to extract the product formed and the remaining substrate. Extracted samples were directly injected onto the HPLC under either chiral or achiral conditions.
The effect of captopril on immobilized DBH kinetics is represented in the form of a reciprocal velocity plot versus the reciprocal of the concentration of tyramine. […] The slope and intercept replots were linear (r>0.995).

[2] = target: T2, DBH-Glut-P IMER (immobilized dopamine beta-hydroxylase); assay: On-line DBH-Glut-P immobilized enzyme reactor (DBH-Glut-P IMER) HPLC system; format: biochemical, bovine
Source text: DBH immobilized on the IAM or Glut-P stationary phase was packed into a 1 cm×10 mm guard (Regis Technologies). The guard was placed in a holder and the resulting column connected to a chromatographic system. THE DBH-IAM-IMER and the DBH-Glut-P-IMER was washed with sodium acetate buffer [0.1M, pH 5.5] and sodium acetate buffer [0.1M, pH 6.0], respectively. The eluent from both IMERs was collected in order to determine if any of the DBH was being washed off the columns. The Biorad assay was utilized to measure the amount of non-immobilized enzyme. When the columns were not in use they were washed with sodium acetate buffer at the respective pHs and stored at 4° C.
Pumps 2 and 3 on system 2 and 3 were stopped. 100 μl of a substrate/cofactor mixture is loaded into the injector (i) and the valve is switched to the inject position at the same time the witching valve (SV) is switched such that substrate/product are eluted from the DBH-IMERs and concentrated onto the PBA column of system 2.The second pump was started and mobile phase A was pumped through the PBA column at a flow rate of 0.1 ml/min for 30 sec in order to elute, ascorbic acid and any other by-products produced from the reaction. The pump was then switched to mobile phase B with a flow rate of 0.1 ml/min for 2 min and simultaneously SV1 was switched such that unreacted substrate and product formed were concentrated on the analytical columns of System 3. When the specific contact time elapses the SV2 is switched back to the original position and the pump 3 is started.
The enzymatic activity on the DBH-Glut-P was determined by quantification of the amount of product formed with a given substrate. The temperature of the IMER unless otherwise stated was kept at 37° C. with a column heater. Stock solutions of tyramine were prepared in water. […] The kinetic parameters were determined using standard Michaelis-Menten approach. […] The rates of reaction (Vmax) were calculated using […]mol/mg/min. Results are expressed as mean±standard error of the mean (SEM). […]

[3] = target: T3, dopamine beta-hydroxylase (DBH), non-immobilized; assay: Non-immobilized DBH activity assay, batch incubation with HPLC-fluorescence analysis; format: biochemical, bovine
Experimental: The solutes were quantitated using fluorescence detection with excitation at λ=265 nm and no cut-off filter for emission. A flow rate of 1 ml/min and ambient temperature were used throughout the study.
Enzymatic conversions utilizing DBH require cupric sulphate, catalase, ascorbic acid and sodium fumarate. An off-line extraction method utilizing solid phase extraction cartridges containing a phenylboronic acid stationary phase was developed. The procedure consisted of the following: 1-ml cartridges were conditioned with 2 ml of methanol followed by 2 ml of sodium phosphate buffer (0.1M, pH 8.4). One ml of reaction mixture was added, the cartridge was then washed with 1 ml sodium phosphate buffer (0.1M, pH 8.4) and the substrate and product were eluted using 1 ml of 0.1N HCl. The eluate was directly injected onto the HPLC system.
as §1

[4] = target: T4, dopamine beta-hydroxylase; conditions: 140 μM captopril; Cu2+ as CuSO4; Palatini et al., 1989; cited from earlier work
[5] = substrate: NCCc1ccc(O)c(O)c1; assay: purified protein, by the assay type; conditions: other: non-immobilized DBH; Lineweaver-Burke; 37.0 °C
[6] = substrate: NCCc1ccc(O)cc1; assay: Non-immobilized DBH activity assay, batch incubation with HPLC-fluorescence analysis; format: biochemical, bovine; conditions: other: non-immobilized DBH; Lineweaver-Burke; 37.0 °C
Experimental: (§2) Enzymatic conversions utilizing DBH require cupric sulphate, catalase, ascorbic acid and sodium fumarate. […] The procedure consisted of the following: 1-ml cartridges were conditioned with 2 ml of methanol followed by 2 ml of sodium phosphate buffer (0.1M, pH 8.4). One ml of reaction mixture was added, the cartridge was then washed with 1 ml sodium phosphate buffer (0.1M, pH 8.4) and the substrate and product were eluted using 1 ml of 0.1N HCl. The eluate was directly injected onto the HPLC system.

[7] = substrate: O=C1O[C@H]([C@@H](O)CO)C(O)=C1O; assay: as above; format: biochemical, bovine; conditions: other: non-immobilized DBH; Lineweaver-Burke; 37.0 °C
Experimental: as §2

Molecule	cupric sulphate concentration achieving reversal of the inhibition ([1]; enzyme form not stated)	type of inhibition with respect to tyramine (reciprocal velocity plot) ([1]; immobilized DBH, tyramine as varied substrate)	inhibition of DBH mediated formation of octopamine from tyramine ([1]; immobilized enzyme, concentrations as low as 150 μM)	concentration as low as which the IMER is inhibited ([2]; DBH-Glut-P IMER)	IC50 ([2]; on-line injection of substrate/cofactor/inhibitor mixtures, read-out: IC50 DBH-Glut-P IMER)	inhibition of DBH mediated formation of octopamine from tyramine ([3]; non-immobilized enzyme, concentrations as low as 150 μM)	IC50 ([3]; read-out: IC50 DBH (Non-immobilized))	Cu^2+ concentration giving reversal of the inhibition [4]	Km [5]	Km [6]	Km [7]	Vmax [7]
C[C@H](CS)C(=O)N1CCC[C@H]1C(=O)O [Captopril, captopril]	2.5 µM	noncompetitive inhibition	approximately 50%	50 µM	120 µM	approximately 50%	150 µM	1.5 µM	–	–	–	–
B1	–	–	–	–	–	–	–	–	5030 µM	2850 µM	620 µM	0.185 µmol/mg/min
